# Reference: patent US12594271B2, “Combination therapy for cancer” (Health Research, Inc., priority 2019, dated 2026)
# “Also recorded” adds a separate entry of the source.
# What was measured:
# 4T1 tumors cells = test: 4T1 orthotopic mammary tumor model: tumor growth and spontaneous lung metastases; format: in vivo, mice; conditions: BRQ 10 mg/kg i.p. daily
# Procedure: FIG. 1. […] (A) 4T1 growth in mice treated daily with BRQ (10 mg/kg, i.p.), anti-PD-1 ([…], i.p. at the indicated 3 or 4 times) or both agents. n=5 mice/group/experiment for upper and lower graphs; *P<0.01 against single-agent treatments. B-D, data shown are for analysis of A, upper graph. (B) Spontaneous metastatic lung counts; *P<0.01. Similar patterns seen in the 2nd experiment (avg. #mets): vehicle=12; BRQ=1; αPD-1=5; combo=1. (C) Splenic granulocytic (CD11b^+Ly6C^loLy6G^+) or monocytic (CD11b^+Ly6C^hiLy6G^−) numbers in non-tumor-bearing (NTB) or tumor-bearing mice were converted to a ratio for group-by-group comparison; *P<0.03. (D) Splenic CD3^+ T cell numbers in tumor-bearing mice. (E) Splenic CD8^+ T cells in A (lower graph) were assayed based on differential expression of CD44:naïve ([…]) vs. effector/central memory (hi) phenotypes. *P<0.03. Data reported as a ratio to indicate a rising memory pool. […]
# Treatment of Tumor-Bearing Mice Alters Surface Phenotype of Myeloid Cells. […] Female BALB/c or C57BL/6 mice were orthotopically implanted with 4T1 or AT-3 mammary tumor cells, respectively, and were monitored 3 times weekly for tumor growth. […]
# Effect of Treatment of Tumor-Bearing Mice with BRQ on the Efficacy of Anti-Tumor Immunotherapy. […] At endpoint, BM cells or spleens were collected and analyzed for the indicated populations by flow cytometry. […]
# E0771 = E0771 mammary tumor model: bone marrow multi-spectral flow cytometry; format: in vivo; conditions: endpoint
# Procedure: BRQ Alters the Bone Marrow Myeloid Compartment in Triple Negative Breast Cancer Model. This study was performed in another mammary tumor model, termed E0771. The experimental design is as described in FIG. 12 and bone marrow cells were collected at endpoint, as in FIG. 19 for flow cytometric analysis. Here, BM samples were analyzed by multi-spectral high dimensional flow cytometry using a Cytek Aurora Spectral Flow Cytometer and the data are illustrated as a TSNE plot (i.e, t-distributed Stochastic Neighbor). Circled regions refer to the data of interest.
# SLFN4 = test: qRT-PCR in Lin- BM cells cultured 2 days; format: cell-based, mouse; conditions: bone marrow cells cultured with BRQ, normalized to vehicle
# Procedure: (§1) FIG. 2. […] (A) MDSCs were produced in vitro from mouse bone marrow cells using GM-CSF and G-CSF±BRQ (1 μM) or ATRA (10 μM) at the start of the 4-day culture. Cells tested for their ability to inhibit T cell proliferation (1:1 ratio), as in FIG. 5. Fresh BM=Uncultured bone marrow cells. (B) Similar to A, except that uridine (200 μM) was added to rescue the effect of BRQ. (C) Expression of IRF8 (upper) or SLFN4 (lower) was analyzed by qRT-PCR in Lin^− BM cells cultured as in A for 2 days. Data normalized to the vehicle.
# IRF8 = test: qRT-PCR in Lin- BM cells cultured 2 days; format: cell-based, mouse; conditions: bone marrow cells cultured with BRQ, normalized to vehicle
# Procedure: as §1
# [1] = test system: myeloid cells and T cells of 4T1 tumor-bearing mice; test: Flow cytometry of spleen, bone marrow and tumor cells from 4T1 tumor-bearing mice; format: in vivo
# Procedure: FIG. 1. […] (A) 4T1 growth in mice treated daily with BRQ (10 mg/kg, i.p.), anti-PD-1 ([…], i.p. at the indicated 3 or 4 times) or both agents. n=5 mice/group/experiment for upper and lower graphs; *P<0.01 against single-agent treatments. B-D, data shown are for analysis of A, upper graph. (B) Spontaneous metastatic lung counts; *P<0.01. Similar patterns seen in the 2nd experiment (avg. #mets): vehicle=12; BRQ=1; αPD-1=5; combo=1. (C) Splenic granulocytic (CD11b^+Ly6C^loLy6G^+) or monocytic (CD11b^+Ly6C^hiLy6G^−) numbers in non-tumor-bearing (NTB) or tumor-bearing mice were converted to a ratio for group-by-group comparison; *P<0.03. (D) Splenic CD3^+ T cell numbers in tumor-bearing mice. (E) Splenic CD8^+ T cells in A (lower graph) were assayed based on differential expression of CD44:naïve ([…]) vs. effector/central memory (hi) phenotypes. *P<0.03. Data reported as a ratio to indicate a rising memory pool. Data in B-E are at endpoint; ns, not significant.
# (§2) Treatment of Tumor-Bearing Mice Alters Surface Phenotype of Myeloid Cells. […] Female BALB/c or C57BL/6 mice were orthotopically implanted with 4T1 or AT-3 mammary tumor cells, respectively, and were monitored 3 times weekly for tumor growth. When tumors became measurable (indicated by the arrow), BRQ was administered daily (10 mg/kg intraperitoneally), and at endpoint the BM cells or spleens were collected for flow cytometric analysis for the expression (i.e., percentage or MFI value) of the indicated cell surface markers (FIGS. 13-15). We extended our in vitro studies with BRQ to […] to determine the impact of BRQ on MDSC maturation. To that end, mice bearing orthotopically implanted mammary tumors were treated with or without BRQ in vivo using a similarly previously reported dose, frequency and schedule (Sykes et al. Cell 167:171-186, 2016). The first tumor model chosen was 4T1, which is an aggressive mammary tumor cell line that induces a robust MDSC response largely comprised of PMN-MDSCs.
# The upper panels of FIG. 14 are representative flow cytometry plots of the non-tumor-bearing (NTB) or tumor-bearing cohorts without (vehicle) or with BRQ. The middle panel histogram represents CD101 expression on the gated (boxed) populations of the upper panels. In this case, the far-right histograms refer to the gated-boxed right dot plot (for the PMN or granulocytic subset), whereas the gated-boxed left histogram refers to the gated-boxed upper left dot plot (for the monocytic subset). […] FIG. 15 refers to the quantification of the CD101 data from non-tumor-bearing mice or tumor-bearing mice with or without BRQ, based on both the CD101 MFI values and the percentages of CD101^+ (or high-expressing) cells reflecting the monocytic subset (upper left histogram and middle left table) or the PMN-MDSC subset (upper right histogram and middle right table). The quantification appears in the lower left and right graphs. Each point represents an individual mouse.
# Effect of Treatment of Tumor-Bearing Mice with BRQ on the Efficacy of Anti-Tumor Immunotherapy. […] At endpoint, BM cells or spleens were collected and analyzed for the indicated populations by flow cytometry. These experiments sought to determine whether BRQ can act in the bone marrow environment. […] The frequency of these cells approached levels seen in the non-tumor-bearing controls. […] Moreover, analysis of the systemic impact of BRQ on T cell numbers and their activation/memory state was performed on splenic population at endpoint (FIG. 20). […] This analysis at the time was not performed on cohorts treated with anti-PD-1 mAb alone or the combination, since the intent was to focus on the effect of BRQ on T cell numbers and their phenotypic states.
# Treatment of Tumor-Bearing Mice with BRQ Increases the Proliferative Capacity and Activation of Intra-Tumoral T Cells. Experimental design is as described in FIG. 12. […]
# AT-3 tumor cells = test: AT-3 orthotopic mammary tumor model: tumor growth and splenic flow cytometry; format: in vivo, mice
# Procedure: as §2
# Female C57BL/6 mice were orthotopically implanted with AT-3 tumor cells and were monitored 3 times weekly for tumor growth. When tumors became measurable, BRQ was administered daily (10 mg/kg intraperitoneally), and at endpoint the spleens were collected and analyzed by flow cytometry for the indicated cell surface markers. Tumor growth is shown in the upper panel of FIG. 16 while representative flow cytometry data is shown in the lower panel.
# [2] = 4T1, BRQ 10 mg/kg i.p. daily, spleen
# [3] = 4T1 tumor-bearing mice, endpoint
smiles,measurement,setting,value
"Cc1c(-c2ccc(-c3ccccc3F)cc2)nc2ccc(F)cc2c1C(=O)O [BRQ, 6-Fluoro-2-(2′-fluoro-[1,1′-biphenyl]-4-yl)-3-methylquinoline-4-carboxylic acid]",Spontaneous metastatic lung counts (avg. #mets),"4T1 tumors cells; 2nd experiment, anti-PD-1 200 μs i.p. 3 or 4 times, endpoint",1
same,4T1 tumor growth,"4T1 tumors cells; BALB/c mice, anti-PD-1 200 μg i.p.",little effect on tumor growth; also recorded: only a nominal effect on primary tumor growth
same,frequency of granulocyte progenitors (GPs) in bone marrow,E0771,reduced the frequency of granulocyte progenitors
same,frequency of monocyte progenitors (MPs) in bone marrow,E0771,increased the frequency of monocyte progenitors
same,SLFN4 expression,SLFN4,reciprocal decrease in SLFN4 expression
same,IRF8 expression,IRF8,increase in IRF8 expression
same,CD101 expression on splenic granulocytic populations,"[1]; 4T1, BRQ 10 mg/kg i.p. daily",significantly increased CD101 expression
same,accumulation of the granulocytic population in the spleen,"[1]; 4T1, BRQ 10 mg/kg i.p. daily",did not significantly alter
same,Ly6C expression on granulocytic cells,[1]; [2],significantly higher expression of the cell surface Ly6C
same,Ly6G expression on granulocytic cells,[1]; [2],trended upward but did not reach statistical significance
same,tumor-driven expansion of myeloid progenitor populations GMP or GP in bone marrow,"[1]; 4T1, endpoint",reduced tumor-driven expansion
same,accumulation of CD11b+Gr-1+ cells in bone marrow,"[1]; 4T1, vs vehicle controls",reduced the accumulation of CD11b^+Gr-1^+ cells
same,splenic granulocyte to monocyte ratio,"[1]; 4T1 tumor-bearing mice vs non-tumor-bearing controls, endpoint",significantly altered the granulocyte to monocyte ratio resembling the non-tumor-bearing controls
same,splenic CD3+ T cell numbers,[1]; [3],did not alter; also recorded: no negative effect
same,splenic CD8+ T cell memory populations (ratio of memory to naïve T cells by CD44),[1]; [3],did not alter; also recorded: no negative effect
same,CD44 expression on intratumoral CD8+ and CD4+ T cells,[1]; tumor tissue at endpoint,Increases in CD44 expression were similarly observed
same,proliferative capacity of intratumoral CD8+ and CD4+ T cells (percentages of Ki-67+ cells),[1]; tumor tissue at endpoint,significant increases in the proliferative capacity
same,Ly6C expression on the granulocytic (PMN-MDSC) subset,"AT-3 tumor cells; AT-3-bearing mice, spleen",significantly increased the expression of Ly6C
same,Ly6C or Ly6G expression on the monocytic subset,"AT-3 tumor cells; AT-3-bearing mice, spleen",no significant changes
same,Ly6G expression on the surface of granulocytes,"AT-3 tumor cells; AT-3-bearing mice, spleen",increased the expression of Ly6G
same,AT-3 tumor growth,"AT-3 tumor cells; C57BL/6 mice, BRQ 10 mg/kg i.p. daily",minimal effects on inhibiting tumor growth
